Test results as given in patent US20150299120A1, “Spirohydantoin compounds and their use as selective androgen receptor modulators” (NOVARTIS AG, priority 2012, published 2015).

Columns and labels:
androgen receptor (AR) = biological target: T1, androgen receptor (AR) (Homo sapiens, UniProt P10275); assay: Test 1: androgen receptor transcriptional activation (2XIDR17-luciferase) assay in transfected C2C12 cells; type: cell-based; details: for Emax: C2C12, C2C12 cells, percentage activity relative to 1 μM DHT, read-out: Biological activity (C2C12 cell) Emax % (converted); for EC50: mouse myoblastic C2C12 cells transfected with full-length AR and 2XIDR17-luciferase, read-out: Biological activity (C2C12 cell) EC50; for % Biological activity (C2C12 cell) 100 nM / % Biological activity (C2C12 cell) 5 μM: C2C12 cells, relative to 1 μM DHT; for % Biological activity (C2C12 cell) 100 nM: compound at 100 nM; for % Biological activity (C2C12 cell) 5 μM: compound at 5 μM
T1 construct: transfecting C2C12 cells with a plasmid containing full-length AR; expressed in transfected cells; host or cells: mouse myoblastic C2C12 cells (ATCC CRL-1772), transiently transfected with AR-FL in pcDNA 3.1(+)
T1 sequence (P10275 1-920): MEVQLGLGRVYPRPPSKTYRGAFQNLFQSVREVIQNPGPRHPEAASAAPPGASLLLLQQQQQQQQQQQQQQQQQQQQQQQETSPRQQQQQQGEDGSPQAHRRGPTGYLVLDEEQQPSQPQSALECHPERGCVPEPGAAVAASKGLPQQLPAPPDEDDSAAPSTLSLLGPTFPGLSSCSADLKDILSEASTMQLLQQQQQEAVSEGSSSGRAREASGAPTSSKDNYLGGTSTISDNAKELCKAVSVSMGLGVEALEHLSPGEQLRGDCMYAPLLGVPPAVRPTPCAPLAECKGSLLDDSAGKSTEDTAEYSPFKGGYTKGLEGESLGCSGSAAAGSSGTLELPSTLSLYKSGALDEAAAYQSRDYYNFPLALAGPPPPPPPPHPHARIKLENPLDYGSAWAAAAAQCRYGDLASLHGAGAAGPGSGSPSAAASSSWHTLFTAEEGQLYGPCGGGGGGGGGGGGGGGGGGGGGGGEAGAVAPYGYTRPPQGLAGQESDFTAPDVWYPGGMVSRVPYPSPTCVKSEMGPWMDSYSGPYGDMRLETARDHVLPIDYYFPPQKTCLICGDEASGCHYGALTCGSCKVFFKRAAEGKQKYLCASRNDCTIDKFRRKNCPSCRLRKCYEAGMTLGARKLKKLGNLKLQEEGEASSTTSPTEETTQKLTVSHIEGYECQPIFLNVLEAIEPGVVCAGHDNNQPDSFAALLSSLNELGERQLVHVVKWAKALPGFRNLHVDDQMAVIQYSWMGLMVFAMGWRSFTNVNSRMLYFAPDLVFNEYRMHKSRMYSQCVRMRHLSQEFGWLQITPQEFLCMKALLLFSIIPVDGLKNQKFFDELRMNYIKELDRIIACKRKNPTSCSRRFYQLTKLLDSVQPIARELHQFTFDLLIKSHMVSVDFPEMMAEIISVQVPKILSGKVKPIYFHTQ
Experimental: A suitable assay to determine the ability of a ligand to transcriptionally activate androgen receptor (AR) is carried out using mouse myoblastic C2C12 cells. The assay involves transfecting C2C12 cells with a plasmid containing full-length AR along with an AR response element linked to luciferase (2XIDR17). The luminescence read-out at the end of the assay is measured using Victor 3 and is a direct measure of the transcriptional activity. The assay has been validated using the reference compound, BMS-564929, for which EC50 values have been reported in a similar set-up.
C2C12 cells were obtained from ATCC (Cat #CRL-1772) and maintained in DMEM modified to contain 4 mM L-glutamine, 4.5 g/L glucose, 1 mM sodium pyruvate and 1.5 g/L sodium bicarbonate and 10% FBS.
AR-FL in pcDNA 3.1(+) and 2XIDR17 in pGL4.26 plasmids prepared using Genelute plasmid miniprep kit from Sigma Cat #PLED35 Steadyglow Luciferase assay system Promega Cat #E2550
• C2C12 cells were seeded in a 96-well plate in DMEM (Dulbecco's Modified Eagle Medium) without phenol red and containing 10% CS-FBS (Charcoal-stripped Fetal Bovine Serum) at 8000 cells/well. • The next day, cells were transfected with an equimolar ratio of (Androgen Receptor-Full length) AR-FL and 2XIDR17-Luciferase at a total plasmid concentration of 200 ng/well using Lipofectamine 2000 following manufacturer's protocol. • For the transfection, 83 ng of AR-FL and 117 ng of 2XIDR17-Luciferase were in 12.5 μl of OptiMEM—Mix A. 0.4 μl of Lipofectamine 2000 was added to 12.5 μl of OptiMEM and incubated for 5 min at room temperature—Mix B. The two mixes A and B were mixed and incubated at room temperature for an additional fifteen minutes. An additional 50 μl of OptiMEM was added, gently mixed and this mixture was added to the cells in the 96-well plate. The above quantities are requirements per well of a 96-well plate. Master mixes were made for the entire plate, with proportional quantity of reagents being used. • 5 h after transfection, compounds were added to the wells in DMEM without phenol red and containing 10% CS-FBS, maintaining a final DMSO concentration of 0.5%. A typical dose response curve starts at 10 μM and includes a 7-point, log dilution, done in triplicates. • After overnight incubation with the compounds, 100 ul of working solution of Steadyglow reagent was added to the wells. • The plates were placed in a shaker for 15 min at the end of which the lysate containing luciferase was transferred to a white flat-bottom plate and read under a luminescence setting in Victor. • Background subtracted counts (Luminescence from DMSO control wells is considered the background) are used to calculate percentage activity, expressed relative to activity with 1 μM (Dihydrotestosterone) DHT (at least two sets of triplicates for 1 μM DHT are included per plate).
The EC50 curves for the compounds for 8 compound concentrations were fitted by the respective function using non-linear least-squares regression in Graphpad Prism 4.0 (Graphpad Software, San Diego, Calif., USA).

Compound | melting point [°C] | Emax (androgen receptor (AR)) [%] | EC50 (androgen receptor (AR)) [µM] | % Biological activity (C2C12 cell) 100 nM (androgen receptor (AR)) [%] | % Biological activity (C2C12 cell) 5 μM (androgen receptor (AR)) [%]
CCN1C(=O)N(c2ccc(C#N)c(Cl)c2C)C(=O)C12CCCC2 [Example 3.2, 2-chloro-4-(1-ethyl-2,4-dioxo-1,3-diazaspiro[4.4]nonan-3-yl)-3-methylbenzonitrile] | 94 | 83 | 0.0235 | – | –
Cc1c(N2C(=O)N(CCO)C3(CCCC3)C2=O)ccc(C#N)c1Cl [Example 9.7, 2-chloro-4-(1-(2-hydroxyethyl)-2,4-dioxo-1,3-diazaspiro[4.4]nonan-3-yl)-3-methylbenzonitrile] | 98 | 76 | 0.199 | – | –
Cc1cc(CN2C(=O)N(c3ccc(C#N)c(Cl)c3C)C(=O)C23CCCC3)no1 [Example 8.1, 2-chloro-3-methyl-4-(1-((5-methylisoxazol-3-yl)methyl)-2,4-dioxo-1,3-diazaspiro[4.4]nonan-3-yl)benzonitrile] | 134 | 109 | 0.006 | – | –
Cc1c(N2C(=O)N(C)C3(CCC(F)(F)C3)C2=O)ccc(C#N)c1Cl (stereo not shown) [Example 6.3, 2-chloro-4-(7,7-difluoro-1-methyl-2,4-dioxo-1,3-diazaspiro[4.4]nonan-3-yl)-3-methylbenzonitrile] | 184 | 63 | 0.0149 | – | –
COCCN1C(=O)N(c2ccc(C#N)c(Cl)c2C)C(=O)C12CCCC2 [Example 3.1, 2-chloro-4-(1-(2-methoxyethyl)-2,4-dioxo-1,3-diazaspiro[4.4]nonan-3-yl)-3-methylbenzonitrile] | 115 | 96 | 0.105 | – | –
Cc1c(N2C(=O)N(C)C3(CCCC3=O)C2=O)ccc(C#N)c1Cl (racemic) [Example 1.1, 2-chloro-3-methyl-4-(1-methyl-2,4,6-trioxo-1,3-diazaspiro[4.4]nonan-3-yl)benzonitrile] | 161 | 60 | 0.847 | – | –
Cc1c(N2C(=O)N(Cc3ccc(C#N)cc3)C3(CCCC3)C2=O)ccc(C#N)c1Cl [Example 8.0, 2-chloro-4-(1-(4-cyanobenzyl)-2,4-dioxo-1,3-diazaspiro[4.4]nonan-3-yl)-3-methylbenzonitrile] | 195 | 106 | 0.00048 | – | –
Cc1c(N2C(=O)N(C)C3(CCCC3O)C2O)ccc(C#N)c1Cl (mixture of isomers) [Example 1.2, 2-chloro-4-(4,6-dihydroxy-1-methyl-2-oxo-1,3-diazaspiro[4.4]nonan-3-yl)-3-methylbenzonitrile] | 179 | 79 | 0.93 | – | –
Cc1c(N2C(=O)N(C)C3(CCCC3CO)C2=O)ccc(C#N)c1Cl (stereo not shown) [Example 1.6, 2-chloro-4-(6-(hydroxymethyl)-1-methyl-2,4-dioxo-1,3-diazaspiro[4.4]nonan-3-yl)-3-methylbenzonitrile] | 157 | – | – | 28 | 75
Cc1c(N2C(=O)N(Cc3ccccn3)C3(CCCC3)C2=O)ccc(C#N)c1Cl [Example 8.4, 2-chloro-4-(2,4-dioxo-1-(pyridin-2-ylmethyl)-1,3-diazaspiro[4.4]nonan-3-yl)-3-methylbenzonitrile] | 179 | 96 | 0.048 | – | –
Cc1c(N2C(=O)N(Cc3ccncc3)C3(CCCC3)C2=O)ccc(C#N)c1Cl [Example 8.5, 2-chloro-4-(2,4-dioxo-1-(pyridin-4-ylmethyl)-1,3-diazaspiro[4.4]nonan-3-yl)-3-methylbenzonitrile] | 76 | – | 0.0307 | – | –
Cc1ccc(CN2C(=O)N(c3ccc(C#N)c(Cl)c3C)C(=O)C23CCCC3)cn1 [Example 8.6, 2-chloro-3-methyl-4-(1-((6-methylpyridin-3-yl)methyl)-2,4-dioxo-1,3-diazaspiro[4.4]nonan-3-yl)benzonitrile] | 177 | – | 0.011 | – | –
Cc1c(N2C(=O)N(C)C3(CCC(=O)C3)C2=O)ccc(C#N)c1Cl (stereo not shown) [Example 6.2, 2-chloro-3-methyl-4-(1-methyl-2,4,7-trioxo-1,3-diazaspiro[4.4]nonan-3-yl)benzonitrile] | 219 | – | – | 9 | 29
Cc1c(N2C(=O)N(C)C3(CCCC3)C2=O)ccc(C#N)c1Cl [Example 3.0, 2-chloro-3-methyl-4-(1-methyl-2,4-dioxo-1,3-diazaspiro[4.4]nonan-3-yl)benzonitrile] | 154 | 100 | 0.00041 | – | –
